In paper PMC7824787, “Design, Synthesis and In Vitro Investigation of Novel Basic Celastrol Carboxamides as Bio-Inspired Leishmanicidal Agents Endowed with Inhibitory Activity against Leishmania Hsp90” (Biomolecules, 2021) one finds IC50 data, which are given here for 6 compounds.

The target of one assay is LbHsp90 (Leishmania braziliensis, UniProt A4HL70). As to the kind of experiment: In vitro inhibition of the ATPase activity of LbHsp90 (Malachite Green Phosphate Assay). The class given is biochemical. The note with it: 7 μM LbHsp90, 27 °C, 60 min. An excerpt: To evaluate in vitro the modulatory activity of CE, PR and CE caboxamides, a full-length recombinant Hsp90 from L. braziliensis (LbHsp90) was produced in E. coli BL21 DE3 harboring the pET28a_LbHsp90 coding for the C-terminal His-tagged target chaperone (genbank number: XP_001567804.1, full sequence is reported in Appendix B). Pratically, the plasmid pET28a_LbHsp90, kindly donated by professor J.C. Borges, was transformed in E. coli BL21 DE3 using the TransformAid Bacterial Transformation Kit (Thermo Fisher, Waltham, MA, USA). Subsequently, the obtained transformants were grown overnight in LB medium containing 30 μg mL^−1 kanamycin (LBkan30) and then inoculated in 1 L SB kan30 medium (Yeast extract 30 g L^−1, Tryptone 20 g L^−1, NaCl 10 g L^−1) at 37 °C and 220 rpm. When the OD600 reached 0.5–1, gene expression was induced by the addition of 2 mL of 1 M IPTG solution in water and the culture was shifted at 30 °C for 24 h. After cell harvesting by centrifugation (5000 rpm for 30 min), the cell pellet was resuspended in 20 mL of wash buffer (20 mM HEPES buffer, pH 7.0, 500 mM NaCl, 20 mM imidazole) and recombinant E. coli BL21DE3 cells were disrupted by ultrasonication. LbHsp90 was subsequently purified using a Nickel Sepharose 6 Fast Flow agarose resin (Ni-NTA) (GE Healthcare, Milan, Italy) as follows. Soluble protein fraction was separated from cell debris by centrifugation (10,000 rpm for 30min) after cell ultrasonication, and clear lysates were incubated with the Ni-NTA resin for 90 min at 4 °C under mild shaking and loaded onto a glass column (10 × 110 mm). The resin was then washed with 10mL of wash buffer and His-tagged LbHsp90 was eluted using a 3 step gradient (10 mL washing buffer containing 100, 200, and 300 mM imidazole, respectively) and dialyzed against 20 mM HEPES buffer (20 mM, pH 7.5), at 4 °C overnight. The protein content was measured using the Bio-Rad Protein Assay (Hercules, CA, USA) according to the Bradford method and the protein purity was verified by SDS-PAGE analysis (10% T, 2.6% C). It is worth noting that to avoid interferences with the assays described below, proteins were purified and conserved in HEPES buffer (20 mM, pH 7.5) in place of the standard PB-buffer. Reported data are the mean of two experiments run in duplicate.
Sequence of LbHsp90 (A4HL70 entry or part of it): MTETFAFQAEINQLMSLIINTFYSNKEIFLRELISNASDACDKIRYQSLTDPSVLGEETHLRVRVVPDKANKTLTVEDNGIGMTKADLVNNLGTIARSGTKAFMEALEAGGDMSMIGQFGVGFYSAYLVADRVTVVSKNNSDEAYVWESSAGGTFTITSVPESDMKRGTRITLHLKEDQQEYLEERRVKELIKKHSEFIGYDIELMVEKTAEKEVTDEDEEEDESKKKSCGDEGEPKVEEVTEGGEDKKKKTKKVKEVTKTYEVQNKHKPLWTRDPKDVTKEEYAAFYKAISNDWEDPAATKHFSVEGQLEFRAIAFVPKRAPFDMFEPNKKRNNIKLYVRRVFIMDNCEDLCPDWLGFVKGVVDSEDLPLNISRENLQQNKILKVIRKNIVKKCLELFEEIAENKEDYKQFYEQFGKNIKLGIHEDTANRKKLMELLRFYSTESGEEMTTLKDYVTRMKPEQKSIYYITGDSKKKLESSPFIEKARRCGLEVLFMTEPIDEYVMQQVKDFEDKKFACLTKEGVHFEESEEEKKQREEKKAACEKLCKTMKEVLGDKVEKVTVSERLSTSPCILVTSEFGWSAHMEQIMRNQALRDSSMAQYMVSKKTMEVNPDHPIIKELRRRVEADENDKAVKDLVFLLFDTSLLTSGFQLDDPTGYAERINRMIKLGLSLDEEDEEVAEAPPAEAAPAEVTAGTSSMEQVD
Modulatory activity toward the ATPase cycle of LbHsp90 was determined using a Malachite Green Phosphate Assay Kit (Catalog Number MAK307, Sigma-Aldrich®, St. Louis, MO, USA). Analyses were run in a 96-well plate directly following the quantitative formation of a green complex between Malachite Green, molybdate, and free orthophosphate (Pi) produced by ATP hydrolysis catalyzed by the chaperone. Color formation from the reaction was measured on a plate reader at 620 nm. Briefly, the IC50 of CE and its derivatives were extrapolated from a set of dose-response curves obtained by calculating the amount of Pi produced by LbHsp90 in the presence of different compounds concentrations.
Reactions were run in HEPES buffer (20 mM, pH 7.5) containing 3 mM MgCl2 and 50 mM KCl in the presence of different compounds concentrations ([…]), LbHsp90 (7 μM) and ATP (25 mM) at 27 °C for 60 min. OD620 was measured 30 min after Malachite Green reactants addition.
LbHsp90 native activity was measured by conducting the reaction in the presence of just LbHsp90 and ATP and extrapolating the concentration of Pi obtained.
Three sets of control experiments, (1) ATP background hydrolysis, (2) compounds-related interferences and (3) protein-related background coloration, were run as follow: • (1) ATP (25 mM) incubated at 27 °C for 60 min • (2) Compounds (different concentrations) incubated with ATP (25 mM) at 27 °C for 60 min • (3) LbHsp90 (7 μM) at 27 °C for 60 min
The in vitro performances of CE, PR and the carboxamides 1–11 (Figure 4) as potential inhibitors of the Leishmania braziliensis Hsp90 were investigated using Sigma-Aldrich® Malachite Green Phosphate Assay Kit. […]

A further assay deals with BMDM. As to the kind of experiment: Cytotoxicity on BMDM (MTT). The class given is cell-based, mouse. The settings on record: Mus musculus, BMDM; 72 h, MTT; read-out: Healthy Cell Lines IC50, BMDM. Here is the method:
Cytotoxicity was evaluated on human microvascular endothelial cells (HMEC-1, provided by the Centers for Disease Control, Atlanta, GA, USA), on immortalized mouse C57Bl/6 bone marrow derived macrophages (BMDM) from wild type lineage (generated in the laboratories of Drs. Douglas Golenbock and Kate Fitzgerald, University of Massachusetts, Worcester, MA, USA) and on a human acute monocytic leukaemia cell line (THP-1).
HMEC-1 were maintained in MCDB 131 medium (Invitrogen, Milan, Italy) supplemented with 10% fetal calf serum (HyClone), 10 ng/mL of epidermal growth factor, 1 μg/mL of hydrocortisone, 2 mM glutamine and 20 mM HEPES buffer, at 37 °C in 5% CO2. BMDM were maintained in DMEM (Euroclone) medium supplemented with 10% fetal bovine serum (HyClone, Celbio, Milan, Italy), 2 mM glutamine, and 25 mM of HEPES buffer solution (Euroclone). THP-1 were maintained in RPMI supplemented with 10% heat-inactivated FCS, 50 µM 2-mercaptoethanol, 10 µM sodium pyruvate, 20 mM HEPES, and 2 mM glutamine. In order to achieve differentiation into macrophages, cells were treated with 10 ng/mL phorbol myristate acetate (PMA) for 72 h.
For the cytotoxicity assay, cells were seeded in 96 well flat bottom tissue culture clusters (Costar, New York, NY, USA) at the following concentrations: HMEC 10^5 cell/mL, BMDM at 10^6 cell/mL, THP1 at 5 × 10^5 cell/mL. After 24 h, cells were treated with serial dilutions of test compounds in a final volume of 200 µL/well. Cell proliferation was evaluated after 72 h using the MTT assay.
The absorbances were measured with a microplate spectrophotometer (Synergy 4-Biotek) at a test wavelength of 550 nm and a reference wavelength of 650 nm. The results are expressed as IC50 as the concentration inhibiting 50% of cell growth. Each IC50 value is the mean and standard deviation of at least three separate experiments performed in duplicate.

What is called IC50 is the point on the concentration scale where inhibition reaches its midpoint. Regarding `CC1=C(O)C(=O)C=C2C1=CC=C1[C@@]2(C)CC[C@@]2(C)[C@@H]3C[C@](C)(C(=O)O)CC[C@]3(C)CC[C@]12C` [CE, celastrol], the IC50 on LbHsp90 amounted to 201 ± 10 µM; in the assay with BMDM it was 1.76 ± 0.43 µM.

For `CC1=C(O)C(=O)C=C2C1=CC=C1[C@@]2(C)CC[C@@]2(C)[C@@H]3C[C@](C)(C(=O)NCCN4CCCCC4)CC[C@]3(C)CC[C@]12C` [compound 1, (2R,4aS,6aS,12bR,14aS,14bR)-10-hydroxy-2,4a,6a,9,12b,14a-hexamethyl-11-oxo-N-(2-(piperidin-1-yl)ethyl)-1,2,3,4,4a,5,6,6a,11,12b,13,14,14a,14b-tetradecahydropicene-2-carboxamide], the IC50 against LbHsp90 came out at 83 ± 2 µM; with BMDM, 3.61 ± 0.38 µM.

As for `CC1=C(O)C(=O)C=C2C1=CC=C1[C@@]2(C)CC[C@@]2(C)[C@@H]3C[C@](C)(C(=O)NCCN4CCCC4)CC[C@]3(C)CC[C@]12C` [compound 3, (2R,4aS,6aS,12bR,14aS,14bR)-10-hydroxy-2,4a,6a,9,12b,14a-hexamethyl-11-oxo-N-(2-(pyrrolidin-1-yl)ethyl)-1,2,3,4,4a,5,6,6a,11,12b,13,14,14a,14b-tetradecahydropicene-2-carboxamide], the results for the IC50 against LbHsp90 and in the assay with BMDM were 81 ± 1 µM and 4.53 ± 0.05 µM, respectively.

As for `CC1=C(O)C(=O)C=C2C1=CC=C1[C@@]2(C)CC[C@@]2(C)[C@@H]3C[C@](C)(C(=O)NCC45CCCN4CCC5)CC[C@]3(C)CC[C@]12C` [compound 5, (2R,4aS,6aS,12bR,14aS,14bR)-N-((hexahydro-1H-pyrrolizin-7a-yl)methyl)-10-hydroxy-2,4a,6a,9,12b,14a-hexamethyl-11-oxo-1,2,3,4,4a,5,6,6a,11,12b,13,14,14a,14b-tetradecahydropicene-2-carboxamide], the 50% inhibitory concentration (IC50) against LbHsp90 is 20 ± 2 µM; with BMDM, 2.68 ± 0.81 µM.

Take `CC1=C(O)C(=O)C=C2C1=CC=C1[C@@]2(C)CC[C@@]2(C)[C@@H]3C[C@](C)(C(=O)NCCNc4ccnc5cc(Cl)ccc45)CC[C@]3(C)CC[C@]12C` [compound 6, (2R,4aS,6aS,12bR,14aS,14bR)-N-(2-((7-chloroquinolin-4-yl)amino)ethyl)-10-hydroxy-2,4a,6a,9,12b,14a-hexamethyl-11-oxo-1,2,3,4,4a,5,6,6a,11,12b,13,14,14a,14b-tetradecahydropicene-2-carboxamide]: the IC50 against LbHsp90 amounted to 65 ± 4 µM; with BMDM, 2.15 ± 0.02 µM.

As to `CC1=C(O)C(=O)C=C2C1=CC=C1[C@@]2(C)CC[C@@]2(C)[C@@H]3C[C@](C)(C(=O)NCCSS(C)(=O)=O)CC[C@]3(C)CC[C@]12C` [compound 9, S-(2-((2R,4aS,6aS,12bR,14aS,14bR)-10-hydroxy-2,4a,6a,9,12b,14a-hexamethyl-11-oxo-1,2,3,4,4a,5,6,6a,11,12b,13,14,14a,14b-tetradecahydropicene-2-carboxamido)ethyl) methanesulfonothioate], the IC50 on LbHsp90 was > 150 µM; in the assay with BMDM it was 13 ± 2.48 µM.
